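Exposure lasted 48 hours, with cells grown in 96-well plates and compounds tested at five concentrations. GI50 = concentration required for 50% inhibition of growth.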 Active and inactive are the calls of the source. Rule as the data show it: active = GI50 up to about 1.1 µM and inactive = higher.

Some test systems named below: MDA-MB-435; UACC-62; SK-MEL-5; BT-549; K562; SNB-19; Malme-3M; UO-31; ACHN; PC-3; SK-MEL-2; SF-268; NCI/ADR-RES; SK-MEL-28; HCT-15; A549; SN12C; COLO 205; IGROV-1; CCRF-CEM.
Holding throughout (assay): inhibition of tumour cell growth, NCI panel, 48 h

Regarding `O=C(CSc1nccc(=O)[nH]1)c1ccccc1`, the GI50 is 62.2 µM (inactive) with MDA-MB-435; 46.2 µM (inactive) in the test with UACC-62; > 100 µM (inactive) with SK-MEL-5; > 100 µM (inactive) in the test with BT-549; > 100 µM (inactive) in the test with K562; > 100 µM (inactive) in the test on SNB-19. Moreover, the GI50 in the test with Malme-3M is 82.4 µM (inactive); in the test on UO-31, > 100 µM (inactive); with ACHN, > 100 µM (inactive); in the test with PC-3, > 100 µM (inactive); with SK-MEL-2, > 100 µM (inactive); in the test on SF-268, > 100 µM (inactive). Also, the GI50 in the test on NCI/ADR-RES was 37.2 µM (inactive); in the test on SK-MEL-28, > 100 µM (inactive); with HCT-15, more than 100 µM; with A549, > 100 µM (inactive); in the test on SN12C it was 49.9 µM (inactive); in the test on COLO 205, > 100 µM (inactive). In addition, the GI50 in the test on IGROV-1 is > 100 µM (inactive).

Take `CC(=O)N(C(C)=O)n1nc2c(n1)C(=O)c1ccccc1C2=O`: the GI50 in the test on MDA-MB-435, with UACC-62, in the test with SK-MEL-5, with BT-549, with CCRF-CEM and with SNB-19 was > 100 µM (inactive) in each case. Besides, the GI50 in the test with Malme-3M was 68.1 µM (inactive); in the test on UO-31 it was > 100 µM (inactive); in the test with ACHN it was > 100 µM (inactive); with PC-3 it was > 100 µM (inactive); with SK-MEL-2 it was > 100 µM (inactive); with SF-268 it was > 100 µM (inactive). Also, the GI50 in the test with NCI/ADR-RES was > 100 µM (inactive); in the test with SK-MEL-28, > 100 µM (inactive); with HCT-15, more than 100 µM; with A549 it was > 100 µM (inactive); in the test on SN12C, > 100 µM (inactive); with COLO 205 it was > 100 µM (inactive). Besides, the GI50 with IGROV-1 is > 100 µM (inactive).

As to `CC[C@H](NC(=O)OC(C)(C)C)C(=O)NCP(=O)(OCc1ccc([N+](=O)[O-])cc1)OCc1ccc([N+](=O)[O-])cc1`, the GI50 is 34.9 µM (inactive) in the test with MDA-MB-435; 18.3 µM (inactive) with UACC-62; 13.5 µM (inactive) in the test on SK-MEL-5; 31.7 µM (inactive) in the test with BT-549; 21.6 µM (inactive) with CCRF-CEM; 43.1 µM (inactive) in the test with SNB-19. Also, the GI50 in the test with Malme-3M is 53.5 µM (inactive); in the test with UO-31 it was 14.8 µM (inactive); with ACHN, 23 µM (inactive); in the test on PC-3, 34.8 µM (inactive); in the test with SK-MEL-2 it was 50.9 µM (inactive); in the test with SF-268, 40.6 µM (inactive). The GI50 is 33.1 µM (inactive) with NCI/ADR-RES; 28.4 µM (inactive) in the test on SK-MEL-28; 26.9 µM in the test on HCT-15; 27.7 µM (inactive) with A549; 29.1 µM (inactive) in the test on SN12C; 16.5 µM (inactive) in the test with COLO 205. In addition, in the test with IGROV-1, the GI50 is 38.5 µM (inactive).

Turning to `C[N+](C)([O-])Cc1cc(-c2ccccc2)ccc1O`, the GI50 in the test on MDA-MB-435, with UACC-62, in the test on SK-MEL-5, with BT-549, in the test with K562 and with SNB-19 was > 100 µM (inactive) throughout. Moreover, the GI50 in the test with Malme-3M, in the test with UO-31, in the test with ACHN, in the test with PC-3, with SK-MEL-2 and in the test with SF-268 was > 100 µM (inactive) throughout. The GI50 is > 100 µM (inactive) in the test on NCI/ADR-RES; > 100 µM (inactive) in the test on SK-MEL-28; more than 100 µM in the test on HCT-15; > 100 µM (inactive) with A549; > 100 µM (inactive) in the test with SN12C; > 100 µM (inactive) with IGROV-1.

As for `C=C[C@]1(C)C[C@@H](OC(=O)CO)[C@@]2(C)[C@H](C)CC[C@]3(CCC(=O)[C@H]32)[C@@H](C)[C@@H]1O`, the GI50 in the test on MDA-MB-435 is > 68.1 µM (inactive); in the test on UACC-62, 7.59 µM (inactive); with SK-MEL-5 it was > 89.5 µM (inactive); in the test on BT-549 it was > 61.4 µM (inactive); in the test on K562 it was 40 µM (inactive); with SNB-19, > 100 µM (inactive). Further, the GI50 is 83.4 µM (inactive) in the test with Malme-3M; > 63.5 µM (inactive) with UO-31; > 93.5 µM (inactive) in the test with ACHN; > 55.2 µM (inactive) in the test on PC-3; > 59.3 µM (inactive) in the test with SK-MEL-2; > 83.2 µM (inactive) in the test on SF-268. Besides, the GI50 in the test on NCI/ADR-RES is > 100 µM (inactive); in the test with SK-MEL-28, > 74.1 µM (inactive); in the test with HCT-15, more than 94.8 µM; with A549 it was > 100 µM (inactive); with SN12C it was > 100 µM (inactive); in the test with COLO 205 it was > 100 µM (inactive). The GI50 with IGROV-1 is > 91.2 µM (inactive).

On to `C=C(C)CC1(O)C(=O)C(OCC)=C1OCC` (stereo not given), for which the GI50 with MDA-MB-435, in the test on UACC-62, with SK-MEL-5, with BT-549, in the test on CCRF-CEM and with SNB-19 was > 100 µM (inactive) each time. Also, the GI50 with Malme-3M is 48.1 µM (inactive); with UO-31 it was > 100 µM (inactive); in the test with ACHN, > 100 µM (inactive); in the test on PC-3, > 100 µM (inactive); in the test on SK-MEL-2, > 100 µM (inactive); with SF-268, > 100 µM (inactive). For the same compound, the GI50 with NCI/ADR-RES was > 100 µM (inactive); with SK-MEL-28, > 100 µM (inactive); with HCT-15, more than 100 µM; with A549, > 100 µM (inactive); with SN12C, > 100 µM (inactive); in the test with COLO 205, > 100 µM (inactive). The GI50 in the test with IGROV-1 was > 100 µM (inactive).

`NC1CCCCC1.O=P(O)(O)C(O)/C=C/c1ccccc1` (stereo not given): the GI50 in the test with MDA-MB-435, in the test with UACC-62, in the test on SK-MEL-5, with BT-549, in the test with K562 and in the test with SNB-19 was > 100 µM (inactive) each time. Also, the GI50 in the test on Malme-3M, in the test with UO-31, with ACHN, in the test on PC-3, in the test with SK-MEL-2 and with SF-268 was > 100 µM (inactive) in each case. Further, the GI50 with NCI/ADR-RES is > 100 µM (inactive); in the test with SK-MEL-28 it was > 100 µM (inactive); in the test on HCT-15 it was more than 100 µM; with A549, > 100 µM (inactive); in the test on SN12C it was > 100 µM (inactive); with COLO 205 it was > 100 µM (inactive). The GI50 in the test on IGROV-1 was > 100 µM (inactive).

In the case of `S=C(Nc1ccc(Br)cn1)NC12CC3CC(CC(C3)C1)C2`, the GI50 in the test on MDA-MB-435 was 92.9 µM (inactive); in the test with UACC-62 it was 17.5 µM (inactive); in the test on BT-549 it was > 10 µM (inactive); in the test with CCRF-CEM, 25.4 µM (inactive); with K562, > 100 µM (inactive); with SNB-19, 11 µM (inactive). The GI50 in the test with Malme-3M is 21.7 µM (inactive); with UO-31, 28.3 µM (inactive); in the test with ACHN, 13.2 µM (inactive); in the test with PC-3 it was 17 µM (inactive); in the test with SK-MEL-2 it was 22.3 µM (inactive); in the test with SF-268 it was 11.4 µM (inactive). Besides, the GI50 with NCI/ADR-RES was 17.4 µM (inactive); in the test with SK-MEL-28, 39 µM (inactive); in the test on HCT-15 it was 68.7 µM; with A549, 16.2 µM (inactive); in the test with COLO 205 it was 62.2 µM (inactive); with IGROV-1, 8.59 µM (inactive).

Source of the values: ChEMBL document CHEMBL1201862, “PubChem BioAssay data set” (2004).
